Consider three compounds from patent US8137978B2, “Diagnostic method for biomarkers of adverse coronary events” (Saint Louis University, priority 2009, dated 2012).

One series relates to HepG2 cells. Nature of the series: 2-chloropalmitic acid metabolism by HepG2 cells (GC-MS). It counts as in vitro ADME. The note with it: added to cell culture medium, FIG. 9 Panel A. From the text: Two other chlorinated lipids that have prognostic value are α-chloroadipic acid and α-ClFA that is complexed (stored) in triglyceride pools. α-ClFA is metabolized by either storage in triglyceride pools or is broken down in the liver (FIG. 8). In brief α-ClFA is omega oxidized to produce dicarboxylic acids that are shortened and eventually excreted in the urine. […] Concomitant with the loss of 2-chloropalmitic acid is the accumulation of the omega oxidation product, 2-chlorohexadecanedioc acid (Panel B of FIG. 9). Further metabolism of 2-chlorohexadecanedioc acid leads to 2-chlorotetradecanedioc acid (Panel C of FIG. 9) and eventually 2-chloroadipic acid (Panel D of FIG. 9). These metabolites were quantified using gas chromatography-mass spectrometry techniques employing conversion of the carboxylic acids and dicarboxylic acids to their pentafluorobenzyl ester derivatives and negative ion-chemical ionization mass spectrometry.

Series [1] relates to eosinophil peroxidase in PMA-stimulated eosinophils. The note with it: physiological concentrations of NaCl and NaBr, FIG. 12. The method, then:
Further studies have shown that reactive brominating species (RBS), produced by either MPO- or EPO-released by activated neutrophil or eosinophil, respectively, target plasmalogens. […] Bromide was the preferred substrate for eosinophil peroxidase and chloride was not appreciably used even at a 1000-fold molar excess. […] 2-BrHDA is preferentially produced in PMA-stimulated eosinophils (+PMA) incubated in the presence of physiological concentrations of NaCl and NaBr (FIG. 12). […] These findings may have implications in eosinophilic heart disease as well as pulmonary disease and some cancers, which include eosinophil infiltrations.

The test system of a further series is phagocyte. In words: 2-BrHDA phagocyte chemoattractant activity. The series is classed as cell-based. The note with it: phagocytes.

Regarding `CCCCCCCCCCCCCCC(Cl)C(=O)O` (stereo not drawn) [2-chlorohexadecanoic acid], the “2-chloropalmitic acid remaining in cell culture medium over time” value in the series on HepG2 cells is “decreases in a time and concentration dependent manner”.
As for `[N-]=[N+]=[N-]` [azide], the “2-BrHDA production in the presence of the peroxidase inhibitor” value in series [1] is on record as 2-BrHDA was not produced.
For the compound `CCCCCCCCCCCCCCC(Br)C=O` (stereo not drawn) [2-BrHDA, 2-bromohexadecanal], the chemoattractant activity result in the series on phagocyte is given as “phagocyte chemoattractant”.
